The structures appear in SMILES notation.

Experiment [1] has as its target Platelet-derived growth factor receptor beta (Homo sapiens, UniProt P09619). Briefly: Inhibition of PDGFRB (unknown origin) after 60 mins by TR-FRET assay. A general note: In TR-FRET formats the signal depends on donor and acceptor labels being close together.
In experiment [2] the target is Dual specificity protein kinase CLK2 (Homo sapiens, UniProt P49760). Briefly: Inhibition of CLK2 (unknown origin) after 60 mins by TR-FRET assay.
Chain of Dual specificity protein kinase CLK2 (P49760 whole entry): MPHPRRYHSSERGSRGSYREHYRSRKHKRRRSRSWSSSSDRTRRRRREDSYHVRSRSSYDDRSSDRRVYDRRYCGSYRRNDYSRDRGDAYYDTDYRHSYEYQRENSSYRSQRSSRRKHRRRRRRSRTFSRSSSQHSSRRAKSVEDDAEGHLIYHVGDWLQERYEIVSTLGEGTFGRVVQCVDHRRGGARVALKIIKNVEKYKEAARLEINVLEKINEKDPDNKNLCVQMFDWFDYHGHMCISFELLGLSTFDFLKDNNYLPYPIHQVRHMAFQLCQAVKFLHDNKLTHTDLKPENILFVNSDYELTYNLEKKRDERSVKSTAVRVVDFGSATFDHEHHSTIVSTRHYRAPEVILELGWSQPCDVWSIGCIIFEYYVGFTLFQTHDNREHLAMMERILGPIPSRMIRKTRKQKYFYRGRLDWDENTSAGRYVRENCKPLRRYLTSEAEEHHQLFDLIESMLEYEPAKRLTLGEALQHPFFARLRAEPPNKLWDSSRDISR
For another experiment, the target named is Insulin receptor (Homo sapiens, UniProt P06213). Briefly: Inhibition of INSR (unknown origin) after 60 mins by TR-FRET assay.
Chain of Insulin receptor (P06213 28-758 limits assumed): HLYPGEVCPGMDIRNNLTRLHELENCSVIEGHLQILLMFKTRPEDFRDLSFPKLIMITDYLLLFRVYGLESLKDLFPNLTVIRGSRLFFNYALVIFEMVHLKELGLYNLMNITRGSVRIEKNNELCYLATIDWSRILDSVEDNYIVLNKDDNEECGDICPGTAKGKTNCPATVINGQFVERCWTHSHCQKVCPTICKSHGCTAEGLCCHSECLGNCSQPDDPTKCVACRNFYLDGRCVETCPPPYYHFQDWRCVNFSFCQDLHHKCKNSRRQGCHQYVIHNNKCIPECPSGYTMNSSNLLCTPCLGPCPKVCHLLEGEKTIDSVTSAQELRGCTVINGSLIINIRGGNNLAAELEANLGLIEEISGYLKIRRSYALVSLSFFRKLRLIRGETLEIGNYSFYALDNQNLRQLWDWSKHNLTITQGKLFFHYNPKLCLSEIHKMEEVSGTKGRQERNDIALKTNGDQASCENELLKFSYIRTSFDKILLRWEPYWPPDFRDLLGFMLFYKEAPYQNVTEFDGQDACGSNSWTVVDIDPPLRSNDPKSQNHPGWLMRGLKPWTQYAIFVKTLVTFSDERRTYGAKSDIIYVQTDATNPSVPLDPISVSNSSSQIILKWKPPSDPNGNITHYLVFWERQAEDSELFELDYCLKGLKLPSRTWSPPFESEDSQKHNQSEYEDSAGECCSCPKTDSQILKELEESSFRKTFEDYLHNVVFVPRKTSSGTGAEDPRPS
Chain of Insulin receptor (P06213 763-1382 limits assumed): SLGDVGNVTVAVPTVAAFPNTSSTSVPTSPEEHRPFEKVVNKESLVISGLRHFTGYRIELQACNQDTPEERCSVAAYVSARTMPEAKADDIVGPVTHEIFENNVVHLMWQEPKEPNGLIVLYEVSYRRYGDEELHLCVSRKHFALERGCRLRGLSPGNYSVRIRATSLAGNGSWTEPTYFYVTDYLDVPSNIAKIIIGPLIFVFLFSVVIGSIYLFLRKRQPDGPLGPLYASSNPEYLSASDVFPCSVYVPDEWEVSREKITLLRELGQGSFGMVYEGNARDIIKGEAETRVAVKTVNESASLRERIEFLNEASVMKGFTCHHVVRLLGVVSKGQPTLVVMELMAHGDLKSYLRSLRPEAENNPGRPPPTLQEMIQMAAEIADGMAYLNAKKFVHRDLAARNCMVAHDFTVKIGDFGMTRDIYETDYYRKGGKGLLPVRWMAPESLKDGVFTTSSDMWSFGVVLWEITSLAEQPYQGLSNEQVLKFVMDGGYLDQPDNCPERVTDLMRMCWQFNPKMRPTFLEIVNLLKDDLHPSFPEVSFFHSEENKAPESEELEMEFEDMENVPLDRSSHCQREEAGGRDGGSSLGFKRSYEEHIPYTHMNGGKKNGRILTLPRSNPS
The target of experiment [3] is Casein kinase I isoform alpha (Homo sapiens, UniProt P48729). Briefly: Inhibition of CK1alpha1 (unknown origin) after 60 mins by TR-FRET assay.
Chain of Casein kinase I isoform alpha (P48729 whole entry, canonical isoform): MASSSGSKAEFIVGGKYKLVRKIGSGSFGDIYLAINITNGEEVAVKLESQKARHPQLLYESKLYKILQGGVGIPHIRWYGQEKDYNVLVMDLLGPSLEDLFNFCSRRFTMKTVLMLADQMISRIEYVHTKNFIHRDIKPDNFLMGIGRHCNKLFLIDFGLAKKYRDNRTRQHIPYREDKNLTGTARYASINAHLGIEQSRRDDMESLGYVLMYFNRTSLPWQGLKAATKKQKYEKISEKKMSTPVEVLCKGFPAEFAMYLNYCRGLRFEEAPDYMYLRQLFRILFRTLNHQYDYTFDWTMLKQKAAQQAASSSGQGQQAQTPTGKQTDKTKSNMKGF
For the next experiment, the target named is T1, Activin receptor type-1 (Homo sapiens, UniProt Q04771).
T1 sequence (Q04771 whole entry): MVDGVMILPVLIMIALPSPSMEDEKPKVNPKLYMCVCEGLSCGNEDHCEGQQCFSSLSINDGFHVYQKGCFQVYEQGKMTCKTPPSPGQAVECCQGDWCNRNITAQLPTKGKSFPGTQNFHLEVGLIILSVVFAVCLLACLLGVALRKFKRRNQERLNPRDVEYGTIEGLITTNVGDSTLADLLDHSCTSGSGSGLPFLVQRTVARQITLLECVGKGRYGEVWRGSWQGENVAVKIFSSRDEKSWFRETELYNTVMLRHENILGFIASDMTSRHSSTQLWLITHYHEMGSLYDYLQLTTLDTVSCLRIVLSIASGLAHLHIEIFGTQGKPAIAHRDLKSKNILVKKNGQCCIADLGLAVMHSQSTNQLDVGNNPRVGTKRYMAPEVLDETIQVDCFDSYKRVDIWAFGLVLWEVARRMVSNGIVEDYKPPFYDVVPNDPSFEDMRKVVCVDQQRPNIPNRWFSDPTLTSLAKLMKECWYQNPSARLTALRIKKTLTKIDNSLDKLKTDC
Description: Inhibition of ACVR1 (unknown origin) after 60 mins by TR-FRET assay.

Experiment [4] deals with Ribosomal protein S6 kinase alpha-3 (Homo sapiens, UniProt P51812). Briefly: Inhibition of RSK2 (unknown origin) after 60 mins by TR-FRET assay.
Chain of Ribosomal protein S6 kinase alpha-3 (P51812 whole entry): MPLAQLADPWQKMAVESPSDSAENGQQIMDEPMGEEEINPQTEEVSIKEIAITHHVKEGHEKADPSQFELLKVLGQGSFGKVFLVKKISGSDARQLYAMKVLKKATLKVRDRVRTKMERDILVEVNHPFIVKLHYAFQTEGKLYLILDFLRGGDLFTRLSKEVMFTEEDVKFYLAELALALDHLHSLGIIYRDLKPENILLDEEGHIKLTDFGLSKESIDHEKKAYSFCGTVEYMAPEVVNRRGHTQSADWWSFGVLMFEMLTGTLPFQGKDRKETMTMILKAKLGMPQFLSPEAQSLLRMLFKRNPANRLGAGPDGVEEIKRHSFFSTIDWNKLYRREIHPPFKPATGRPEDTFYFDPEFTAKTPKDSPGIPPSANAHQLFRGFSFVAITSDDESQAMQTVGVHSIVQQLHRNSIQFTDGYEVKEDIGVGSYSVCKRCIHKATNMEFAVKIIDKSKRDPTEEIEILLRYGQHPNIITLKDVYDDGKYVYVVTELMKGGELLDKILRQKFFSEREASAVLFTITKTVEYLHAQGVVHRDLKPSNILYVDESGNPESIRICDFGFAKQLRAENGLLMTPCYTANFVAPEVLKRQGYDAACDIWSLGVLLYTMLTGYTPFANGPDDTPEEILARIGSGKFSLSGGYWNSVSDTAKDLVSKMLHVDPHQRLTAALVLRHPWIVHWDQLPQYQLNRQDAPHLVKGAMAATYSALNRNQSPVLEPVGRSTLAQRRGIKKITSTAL
Experiment [5] concerns the target Glycogen synthase kinase-3 beta (Homo sapiens, UniProt P49841). Briefly: Inhibition of GSK3B (unknown origin) after 60 mins by TR-FRET assay.
Experiment [6] deals with T2, Serine/threonine-protein kinase TAO2 (Homo sapiens, UniProt Q9UL54).
T2 sequence (Q9UL54 whole entry): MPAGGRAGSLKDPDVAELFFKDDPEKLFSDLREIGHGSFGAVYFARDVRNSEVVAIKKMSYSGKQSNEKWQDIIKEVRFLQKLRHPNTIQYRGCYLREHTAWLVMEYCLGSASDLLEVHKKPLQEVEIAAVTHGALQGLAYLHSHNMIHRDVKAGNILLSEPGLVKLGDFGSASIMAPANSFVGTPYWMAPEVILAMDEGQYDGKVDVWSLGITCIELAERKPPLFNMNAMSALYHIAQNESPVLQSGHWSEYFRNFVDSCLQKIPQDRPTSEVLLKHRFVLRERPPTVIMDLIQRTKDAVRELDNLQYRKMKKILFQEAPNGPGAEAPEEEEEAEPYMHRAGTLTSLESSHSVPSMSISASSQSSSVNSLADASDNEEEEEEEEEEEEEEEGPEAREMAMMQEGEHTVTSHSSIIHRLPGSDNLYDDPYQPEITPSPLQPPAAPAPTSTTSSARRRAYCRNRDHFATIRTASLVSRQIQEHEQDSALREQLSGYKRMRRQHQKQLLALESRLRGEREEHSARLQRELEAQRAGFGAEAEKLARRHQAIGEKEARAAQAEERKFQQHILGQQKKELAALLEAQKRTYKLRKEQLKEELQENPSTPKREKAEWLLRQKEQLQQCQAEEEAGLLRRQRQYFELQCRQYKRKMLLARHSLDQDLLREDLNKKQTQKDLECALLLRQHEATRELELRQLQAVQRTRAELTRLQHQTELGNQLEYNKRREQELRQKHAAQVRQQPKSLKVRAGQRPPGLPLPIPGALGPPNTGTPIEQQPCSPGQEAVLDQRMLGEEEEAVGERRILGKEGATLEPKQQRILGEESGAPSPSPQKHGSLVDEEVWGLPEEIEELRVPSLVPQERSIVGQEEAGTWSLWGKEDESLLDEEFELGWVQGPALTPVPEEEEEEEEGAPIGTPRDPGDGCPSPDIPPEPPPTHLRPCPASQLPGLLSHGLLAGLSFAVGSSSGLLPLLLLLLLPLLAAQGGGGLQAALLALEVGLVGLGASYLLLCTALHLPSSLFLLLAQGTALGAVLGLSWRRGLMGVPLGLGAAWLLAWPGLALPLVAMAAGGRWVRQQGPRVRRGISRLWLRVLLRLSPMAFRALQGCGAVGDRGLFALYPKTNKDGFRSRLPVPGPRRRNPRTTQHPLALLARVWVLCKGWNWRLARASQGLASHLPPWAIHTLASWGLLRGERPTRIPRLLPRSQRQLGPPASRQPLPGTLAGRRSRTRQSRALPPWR
Description: Inhibition of TAOK2 (unknown origin) after 60 mins by TR-FRET assay.

In experiment [7] the target is Cyclin-dependent kinase 8 (Homo sapiens, UniProt P49336). Briefly: Inhibition of CDK8 (unknown origin) after 60 mins by TR-FRET assay.
Chain of Cyclin-dependent kinase 8 (P49336 whole entry): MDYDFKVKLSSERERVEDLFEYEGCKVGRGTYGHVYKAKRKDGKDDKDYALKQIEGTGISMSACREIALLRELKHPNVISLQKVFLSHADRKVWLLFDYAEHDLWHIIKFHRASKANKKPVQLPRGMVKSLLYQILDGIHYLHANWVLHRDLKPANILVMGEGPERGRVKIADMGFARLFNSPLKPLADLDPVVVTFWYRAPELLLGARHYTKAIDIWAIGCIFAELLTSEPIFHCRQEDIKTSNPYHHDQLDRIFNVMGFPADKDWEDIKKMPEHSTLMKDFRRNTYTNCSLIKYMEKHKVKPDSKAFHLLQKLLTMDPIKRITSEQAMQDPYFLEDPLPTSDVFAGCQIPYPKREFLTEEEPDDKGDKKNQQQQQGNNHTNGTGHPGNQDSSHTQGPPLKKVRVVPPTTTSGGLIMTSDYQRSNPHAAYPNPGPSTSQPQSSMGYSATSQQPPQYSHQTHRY
Experiment [8] addresses T3, Serine/threonine-protein kinase TBK1 (Homo sapiens, UniProt Q9UHD2).
T3 sequence (Q9UHD2 whole entry): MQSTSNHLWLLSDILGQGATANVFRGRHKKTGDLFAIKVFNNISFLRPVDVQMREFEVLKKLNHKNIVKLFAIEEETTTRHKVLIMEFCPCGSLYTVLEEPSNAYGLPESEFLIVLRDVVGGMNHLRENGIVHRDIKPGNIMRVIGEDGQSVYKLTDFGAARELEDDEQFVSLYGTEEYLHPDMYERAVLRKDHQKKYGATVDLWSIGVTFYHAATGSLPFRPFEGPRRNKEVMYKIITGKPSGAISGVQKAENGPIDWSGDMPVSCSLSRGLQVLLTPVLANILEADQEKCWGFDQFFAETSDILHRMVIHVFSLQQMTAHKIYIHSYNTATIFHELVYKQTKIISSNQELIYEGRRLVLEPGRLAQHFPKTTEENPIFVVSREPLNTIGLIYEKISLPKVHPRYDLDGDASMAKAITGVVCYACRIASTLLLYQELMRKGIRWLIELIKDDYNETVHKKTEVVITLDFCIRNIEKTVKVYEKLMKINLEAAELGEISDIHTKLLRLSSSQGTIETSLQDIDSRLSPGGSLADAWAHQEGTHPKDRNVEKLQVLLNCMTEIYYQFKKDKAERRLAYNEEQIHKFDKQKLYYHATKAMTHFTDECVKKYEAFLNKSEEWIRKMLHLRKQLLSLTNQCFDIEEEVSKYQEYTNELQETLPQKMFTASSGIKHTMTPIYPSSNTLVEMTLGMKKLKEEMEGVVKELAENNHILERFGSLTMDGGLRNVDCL
Description: Inhibition of TBK1 (unknown origin) after 60 mins by TR-FRET assay.

Chain of Platelet-derived growth factor receptor beta (P09619 whole entry): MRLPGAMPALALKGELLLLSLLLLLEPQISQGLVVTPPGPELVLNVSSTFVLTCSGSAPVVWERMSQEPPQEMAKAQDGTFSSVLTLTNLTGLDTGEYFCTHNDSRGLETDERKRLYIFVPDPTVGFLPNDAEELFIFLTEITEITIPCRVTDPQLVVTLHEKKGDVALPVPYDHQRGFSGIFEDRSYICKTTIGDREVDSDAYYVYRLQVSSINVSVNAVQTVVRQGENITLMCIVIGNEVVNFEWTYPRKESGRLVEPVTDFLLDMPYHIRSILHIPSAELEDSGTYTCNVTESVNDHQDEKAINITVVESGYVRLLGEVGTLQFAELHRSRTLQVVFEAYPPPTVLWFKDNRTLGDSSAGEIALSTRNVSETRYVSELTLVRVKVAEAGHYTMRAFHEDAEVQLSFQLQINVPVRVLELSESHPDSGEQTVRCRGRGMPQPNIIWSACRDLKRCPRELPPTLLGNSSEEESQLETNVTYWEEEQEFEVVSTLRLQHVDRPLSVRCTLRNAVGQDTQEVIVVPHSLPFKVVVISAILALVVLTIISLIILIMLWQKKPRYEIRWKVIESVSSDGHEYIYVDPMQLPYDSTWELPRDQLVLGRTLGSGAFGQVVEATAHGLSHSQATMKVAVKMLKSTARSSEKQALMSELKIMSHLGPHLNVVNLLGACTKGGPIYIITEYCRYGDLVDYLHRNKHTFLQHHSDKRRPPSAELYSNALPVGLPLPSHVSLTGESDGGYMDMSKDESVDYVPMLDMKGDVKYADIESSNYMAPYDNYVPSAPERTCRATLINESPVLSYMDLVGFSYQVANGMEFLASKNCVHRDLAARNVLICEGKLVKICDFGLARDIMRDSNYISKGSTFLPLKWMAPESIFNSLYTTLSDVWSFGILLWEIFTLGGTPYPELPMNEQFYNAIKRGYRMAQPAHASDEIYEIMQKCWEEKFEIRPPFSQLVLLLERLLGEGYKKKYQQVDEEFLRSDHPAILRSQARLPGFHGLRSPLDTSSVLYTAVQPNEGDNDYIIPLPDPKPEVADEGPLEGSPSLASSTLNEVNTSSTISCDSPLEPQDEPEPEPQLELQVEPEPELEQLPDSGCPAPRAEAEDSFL
Chain of Glycogen synthase kinase-3 beta (P49841 whole entry): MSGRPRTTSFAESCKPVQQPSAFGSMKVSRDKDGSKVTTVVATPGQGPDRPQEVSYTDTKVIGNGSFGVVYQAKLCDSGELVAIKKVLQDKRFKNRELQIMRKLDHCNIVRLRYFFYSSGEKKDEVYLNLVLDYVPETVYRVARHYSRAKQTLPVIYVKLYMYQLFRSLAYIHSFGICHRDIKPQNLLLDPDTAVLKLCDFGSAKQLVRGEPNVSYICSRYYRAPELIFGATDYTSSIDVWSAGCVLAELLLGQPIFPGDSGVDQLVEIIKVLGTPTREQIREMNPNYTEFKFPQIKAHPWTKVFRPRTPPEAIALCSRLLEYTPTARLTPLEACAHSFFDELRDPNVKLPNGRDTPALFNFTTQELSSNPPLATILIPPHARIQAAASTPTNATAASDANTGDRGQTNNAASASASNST

Take `CC1(C)OCC(=O)Nc2cc(Nc3nc(NCC(F)(F)F)c4occc4n3)ccc21`: the half-inhibitory concentration (IC50) (usually the concentration that inhibits the measured activity by half) in [1] is 5.19 µM; in [2], greater than 10 µM; at Insulin receptor it was 2.13 µM; in experiment [3], greater than 10 µM; against Activin receptor type-1, greater than 10 µM; in experiment [4] it was greater than 10 µM. Besides, the IC50 is greater than 10 µM in [5], 8.52 µM in [6], greater than 10 µM in experiment [7] and 7.61 µM in experiment [8].

With `FC(F)(F)CNc1nc(Nc2ccc3cn[nH]c3c2)nc2ccoc12`, the 50% inhibitory concentration (IC50) in experiment [1] is greater than 10 µM; in experiment [2], 6.44 µM; against Activin receptor type-1 it was greater than 10 µM; in [4] it was 9.81 µM; in experiment [5] it was greater than 10 µM; in experiment [6], greater than 10 µM. Also, the concentration for half-maximal inhibition (IC50) in experiment [7] was 2.11 µM; in experiment [8] it was greater than 10 µM.

In the case of `Cc1n[nH]c2cc(Nc3nc(NC4CC4)c4occc4n3)ccc12`, the 50% inhibitory concentration (IC50) is greater than 10 µM in experiment [1]; greater than 10 µM in experiment [2]; greater than 10 µM at Insulin receptor; 7.54 µM in [3]; greater than 10 µM against Activin receptor type-1; greater than 10 µM in experiment [5]. Also, the 50% inhibitory concentration (IC50) in experiment [6], in [7] and in experiment [8] was greater than 10 µM throughout.

As for `FC(F)(F)CNc1nc(Nc2ccc(N3CCOCC3)c(Cl)c2)nc2ccoc12`, the IC50 in [1] was greater than 10 µM; in experiment [2], greater than 10 µM; on Insulin receptor, 3.48 µM; in experiment [3], greater than 10 µM; at Activin receptor type-1, greater than 10 µM; in experiment [4], greater than 10 µM. The IC50 in [5], in experiment [6], in experiment [7] and in experiment [8] was greater than 10 µM each time.
